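These data come from cells grown in 96-well plates and exposed to compound for 48 hours at five concentrations. GI50 = concentration required for 50% inhibition of growth.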 Active and inactive are the calls of the source. No stated cut-off is given here; in the data, active = GI50 up to about 1.1 µM and inactive = higher.
Tests used:
Experiment in all cases: NCI tumour cell line growth inhibition, 48 h
[1] = system: SK-OV-3
[2] = system: UACC-257
[3] = system: Hs-578T
[4] = system: COLO 205
[5] = system: MCF7
[6] = system: HOP-92
[7] = system: SW-620
[8] = system: NCI-H226
[9] = system: PC-3
[10] = system: NCI-H460
[11] = system: DU-145
[12] = system: RXF 393
[13] = system: SNB-75
[14] = system: M14
[15] = system: MOLT-4
[16] = system: SK-MEL-28
[17] = system: T47D
[18] = system: IGROV-1
[19] = system: HT-29
[20] = system: MDA-MB-231
[21] = system: HL-60
[22] = system: Malme-3M
[23] = system: OVCAR-5
[24] = system: SN12C
[25] = system: OVCAR-8
[26] = system: LOX IMVI
[27] = system: 786-0
[28] = system: OVCAR-4
[29] = system: CCRF-CEM
[30] = system: SR
[31] = system: SK-MEL-5
[32] = system: HCT-15
[33] = system: KM12
[34] = system: SNB-19
[35] = system: MDA-N
[36] = system: NCI-H23
[37] = system: OVCAR-3
[38] = system: SK-MEL-2
[39] = system: CAKI-1
[40] = system: EKVX
[41] = system: K562
[42] = system: HCC 2998
[43] = system: UACC-62
[44] = system: NCI/ADR-RES
[45] = system: A498
[46] = system: MDA-MB-435
[47] = system: SF-268
[48] = system: HCT-116
[49] = system: RPMI-8226
[50] = system: HOP-62
[51] = system: A549
[52] = system: ACHN
[53] = system: U-251
[54] = system: BT-549
[55] = system: SF-539
[56] = system: TK-10
[57] = system: SF-295
[58] = system: UO-31
[59] = system: NCI-H522

C[C@]12CC(c3ccccc3O1)C(C#N)C(=O)N2 (stereo partly specified)
GI50 [1]: > 100 µM (inactive)
GI50 [2]: > 100 µM (inactive)
GI50 [3]: > 100 µM (inactive)
GI50 [4]: > 100 µM (inactive)
GI50 [5]: > 100 µM (inactive)
GI50 [6]: > 100 µM (inactive)
GI50 [7]: > 100 µM (inactive)
GI50 [8]: > 100 µM (inactive)
GI50 [9]: > 100 µM (inactive)
GI50 [10]: > 100 µM (inactive)
GI50 [11]: > 100 µM (inactive)
GI50 [12]: > 100 µM (inactive)
GI50 [13]: > 100 µM (inactive)
GI50 [14]: > 100 µM (inactive)
GI50 [15]: > 100 µM (inactive)
GI50 [16]: > 100 µM (inactive)
GI50 [17]: > 100 µM (inactive)
GI50 [18]: > 100 µM (inactive)
GI50 [19]: > 100 µM (inactive)
GI50 [20]: > 100 µM (inactive)
GI50 [21]: > 100 µM (inactive)
GI50 [22]: > 100 µM (inactive)
GI50 [23]: > 100 µM (inactive)
GI50 [24]: > 100 µM (inactive)
GI50 [25]: > 100 µM (inactive)
GI50 [26]: > 100 µM (inactive)
GI50 [27]: > 100 µM (inactive)
GI50 [28]: > 100 µM (inactive)
GI50 [29]: > 100 µM (inactive)
GI50 [30]: > 100 µM (inactive)
GI50 [31]: > 100 µM (inactive)
GI50 [32]: > 100 µM
GI50 [33]: > 100 µM (inactive)
GI50 [34]: > 100 µM (inactive)
GI50 [35]: > 100 µM (inactive)
GI50 [36]: > 100 µM (inactive)
GI50 [37]: > 100 µM (inactive)
GI50 [38]: > 100 µM (inactive)
GI50 [39]: > 100 µM (inactive)
GI50 [40]: > 100 µM (inactive)
GI50 [41]: > 100 µM (inactive)
GI50 [42]: > 100 µM (inactive)
GI50 [43]: > 100 µM (inactive)
GI50 [44]: > 100 µM (inactive)
GI50 [45]: > 100 µM (inactive)
GI50 [46]: > 100 µM (inactive)
GI50 [47]: > 100 µM (inactive)
GI50 [48]: > 100 µM (inactive)
GI50 [49]: > 100 µM (inactive)
GI50 [50]: > 100 µM (inactive)
GI50 [51]: > 100 µM (inactive)
GI50 [52]: > 100 µM (inactive)
GI50 [53]: > 100 µM (inactive)
GI50 [54]: > 100 µM (inactive)

N#C/C(=C\NC(=S)c1ccncc1)c1nc2ccccc2s1
GI50 [1]: > 100 µM (inactive)
GI50 [2]: 30.9 µM (inactive)
GI50 [3]: > 100 µM (inactive)
GI50 [4]: > 100 µM (inactive)
GI50 [5]: 76.9 µM (inactive)
GI50 [6]: > 100 µM (inactive)
GI50 [7]: > 100 µM (inactive)
GI50 [8]: > 100 µM (inactive)
GI50 [9]: > 100 µM (inactive)
GI50 [10]: 68.7 µM (inactive)
GI50 [11]: > 100 µM (inactive)
GI50 [55]: > 100 µM (inactive)
GI50 [56]: 65.2 µM (inactive)
GI50 [12]: > 100 µM (inactive)
GI50 [13]: 68.1 µM (inactive)
GI50 [14]: > 100 µM (inactive)
GI50 [15]: 31.2 µM (inactive)
GI50 [16]: > 100 µM (inactive)
GI50 [17]: 37.9 µM (inactive)
GI50 [18]: > 100 µM (inactive)
GI50 [19]: > 100 µM (inactive)
GI50 [20]: 39.6 µM (inactive)
GI50 [21]: > 100 µM (inactive)
GI50 [23]: > 100 µM (inactive)
GI50 [24]: > 100 µM (inactive)
GI50 [25]: > 100 µM (inactive)
GI50 [26]: > 100 µM (inactive)
GI50 [27]: > 100 µM (inactive)
GI50 [28]: > 100 µM (inactive)
GI50 [30]: 74.6 µM (inactive)
GI50 [31]: > 100 µM (inactive)
GI50 [32]: > 100 µM
GI50 [33]: > 100 µM (inactive)
GI50 [57]: > 100 µM (inactive)
GI50 [34]: > 100 µM (inactive)
GI50 [35]: > 100 µM (inactive)
GI50 [36]: 51.2 µM (inactive)
GI50 [37]: 43.4 µM (inactive)
GI50 [38]: 82.2 µM (inactive)
GI50 [39]: > 100 µM (inactive)
GI50 [58]: > 100 µM (inactive)
GI50 [40]: 67.1 µM (inactive)
GI50 [41]: > 100 µM (inactive)
GI50 [42]: 21.7 µM (inactive)
GI50 [59]: > 100 µM (inactive)
GI50 [43]: > 100 µM (inactive)
GI50 [44]: > 100 µM (inactive)
GI50 [45]: > 100 µM (inactive)
GI50 [46]: > 100 µM (inactive)
GI50 [47]: > 100 µM (inactive)
GI50 [48]: > 100 µM (inactive)
GI50 [49]: > 100 µM (inactive)
GI50 [50]: > 100 µM (inactive)
GI50 [51]: > 100 µM (inactive)
GI50 [52]: > 100 µM (inactive)
GI50 [53]: 98.4 µM (inactive)
GI50 [54]: > 100 µM (inactive)

Reference: ChEMBL document CHEMBL1201862, “PubChem BioAssay data set” (2004)
